Data taken from PubChem BioAssay (NCI).
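Tested at 5 concentrations; 48 h exposure; 96-well plates; endpoints linearly interpolated, else capped at highest concentration. TGI: concentration producing complete growth inhibition.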

Key:
Assay in all cases: NCI tumour cell line growth inhibition, 48 h
[1] = system: SK-MEL-28 melanoma
[2] = system: KM12 colon
[3] = system: MCF7 breast
[4] = system: SNB-75 CNS
[5] = system: OVCAR-5 ovarian
[6] = system: BT-549 breast
[7] = system: A549 NSCLC
[8] = system: M14 melanoma
[9] = system: U251 CNS
[10] = system: SW-620 colon
[11] = system: HOP-62 NSCLC
[12] = system: IGROV1 ovarian
[13] = system: 786-0 renal
[14] = system: SF-268 CNS
[15] = system: NCI-H460 lung
[16] = system: MDA-MB-435
[17] = system: MDA-N
[18] = system: HS 578T breast
[19] = system: OVCAR-3 ovarian
[20] = system: HCT-15 colon
[21] = system: RXF 393 renal
[22] = system: SK-MEL-5 melanoma
[23] = system: UACC-62 melanoma
[24] = system: UACC-257 melanoma
[25] = system: MDA-MB-231 breast
[26] = system: OVCAR-4 ovarian
[27] = system: NCI-H23 lung
[28] = system: TK-10 renal
[29] = system: T-47D breast
[30] = system: MALME-3M melanoma
[31] = system: PC-3 prostate
[32] = system: SR leukemia
[33] = system: SN12C renal
[34] = system: ACHN renal
[35] = system: SK-OV-3 ovarian
[36] = system: SK-MEL-2 melanoma
[37] = system: A498 renal
[38] = system: HOP-92 NSCLC
[39] = system: EKVX NSCLC
[40] = system: UO-31 renal
[41] = system: HL-60(TB) leukemia
[42] = system: HCC-2998 colon
[43] = system: COLO 205 colon
[44] = system: SF-539 CNS
[45] = system: HCT-116 colon
[46] = system: NCI-H522 lung
[47] = system: LOX IMVI melanoma
[48] = system: MOLT-4 leukemia
[49] = system: SF-295 CNS
[50] = system: CCRF-CEM leukemia
[51] = system: SNB-19 CNS
[52] = system: RPMI-8226 leukemia
[53] = system: DU-145 prostate
[54] = system: CAKI-1 renal
[55] = system: HT29 colon
[56] = system: OVCAR-8 ovarian
[57] = system: NCI/ADR-RES ovarian
[58] = system: K-562 leukemia
[59] = system: NCI-H226 lung

Question: Which results are given for `Cc1cccc(C(C)C)c1NC(=O)C(=O)CC(=O)c1sc(Nc2ccccc2Cl)nc1C`?
Answer: TGI [1]: > 100 µM; TGI [2]: > 100 µM; TGI [3]: > 100 µM; TGI [4]: > 100 µM; TGI [5]: > 100 µM; TGI [6]: 93.2 µM; TGI [7]: > 100 µM; TGI [8]: > 100 µM; TGI [9]: > 100 µM; TGI [10]: > 100 µM; TGI [11]: > 100 µM; TGI [12]: > 100 µM; TGI [13]: > 100 µM; TGI [14]: > 100 µM; TGI [15]: 51.1 µM; TGI [16]: 33.2 µM; TGI [17]: 54.6 µM; TGI [18]: > 100 µM; TGI [19]: > 100 µM; TGI [20]: > 100 µM; TGI [21]: > 100 µM; TGI [22]: 87.9 µM; TGI [23]: > 100 µM; TGI [24]: > 100 µM; TGI [25]: > 100 µM; TGI [26]: > 100 µM; TGI [27]: > 100 µM; TGI [28]: > 100 µM; TGI [29]: > 100 µM; TGI [30]: > 100 µM; TGI [31]: > 100 µM; TGI [32]: > 100 µM; TGI [33]: > 100 µM; TGI [34]: > 100 µM; TGI [35]: > 100 µM; TGI [36]: > 100 µM; TGI [37]: > 100 µM; TGI [38]: 66.2 µM; TGI [39]: > 100 µM; TGI [40]: > 100 µM; TGI [41]: 41 µM; TGI [42]: 32.7 µM; TGI [43]: > 100 µM; TGI [44]: 24.7 µM; TGI [45]: > 100 µM; TGI [46]: > 100 µM; TGI [47]: > 100 µM; TGI [48]: > 100 µM; TGI [49]: > 100 µM; TGI [50]: > 100 µM; TGI [51]: > 100 µM; TGI [52]: > 100 µM; TGI [53]: > 100 µM; TGI [54]: > 100 µM

Question: For `CCOC(=O)c1c2c3c(cccc3[nH]c1=O)Sc1ncccc1-2`, which TGI [1] is on record?
Answer: > 100 µM

Question: What about the TGI [3] of the same compound?
Answer: > 100 µM

Question: What about the TGI [4] of the same compound?
Answer: > 100 µM

Question: What about the TGI [5] of the same compound?
Answer: 96.6 µM

Question: And the TGI [55]?
Answer: 94.9 µM

Question: And the TGI [56]?
Answer: > 100 µM

Question: What about the TGI [6] of the same compound?
Answer: > 100 µM

Question: What about the TGI [7] of the same compound?
Answer: 85.3 µM

Question: What about the TGI [8] of the same compound?
Answer: > 100 µM

Question: And the TGI [9]?
Answer: 67.3 µM

Question: What about the TGI [10] of the same compound?
Answer: > 100 µM

Question: And the TGI [11]?
Answer: > 100 µM

Question: And the TGI [57]?
Answer: > 100 µM

Question: What about the TGI [12] of the same compound?
Answer: 61 µM

Question: And the TGI [13]?
Answer: > 100 µM

Question: What about the TGI [14] of the same compound?
Answer: > 100 µM

Question: And the TGI [15]?
Answer: > 100 µM

Question: And the TGI [16]?
Answer: > 100 µM

Question: What about the TGI [17] of the same compound?
Answer: > 100 µM

Question: What about the TGI [18] of the same compound?
Answer: > 100 µM

Question: What about the TGI [19] of the same compound?
Answer: > 100 µM

Question: What about the TGI [20] of the same compound?
Answer: > 100 µM

Question: And the TGI [21]?
Answer: 94.9 µM

Question: And the TGI [22]?
Answer: 24 µM

Question: And the TGI [23]?
Answer: 35.2 µM

Question: What about the TGI [24] of the same compound?
Answer: > 100 µM

Question: What about the TGI [25] of the same compound?
Answer: > 100 µM

Question: What about the TGI [26] of the same compound?
Answer: > 100 µM

Question: What about the TGI [27] of the same compound?
Answer: 86.3 µM

Question: And the TGI [28]?
Answer: > 100 µM

Question: And the TGI [29]?
Answer: > 100 µM

Question: And the TGI [30]?
Answer: > 100 µM

Question: What about the TGI [58] of the same compound?
Answer: > 100 µM

Question: What about the TGI [31] of the same compound?
Answer: 74.6 µM

Question: What about the TGI [32] of the same compound?
Answer: > 100 µM

Question: And the TGI [33]?
Answer: > 100 µM

Question: What about the TGI [34] of the same compound?
Answer: > 100 µM

Question: And the TGI [35]?
Answer: > 100 µM

Question: And the TGI [36]?
Answer: > 100 µM

Question: And the TGI [39]?
Answer: > 100 µM

Question: And the TGI [40]?
Answer: 81.5 µM

Question: What about the TGI [41] of the same compound?
Answer: 86.4 µM

Question: What about the TGI [42] of the same compound?
Answer: > 100 µM

Question: And the TGI [43]?
Answer: > 100 µM

Question: And the TGI [44]?
Answer: > 100 µM

Question: What about the TGI [45] of the same compound?
Answer: > 100 µM

Question: What about the TGI [59] of the same compound?
Answer: 66.5 µM

Question: What about the TGI [46] of the same compound?
Answer: 83.8 µM

Question: And the TGI [47]?
Answer: > 100 µM

Question: What about the TGI [48] of the same compound?
Answer: 68.5 µM

Question: And the TGI [49]?
Answer: 95.3 µM

Question: And the TGI [50]?
Answer: > 100 µM

Question: What about the TGI [51] of the same compound?
Answer: > 100 µM

Question: And the TGI [52]?
Answer: 38.4 µM

Question: What about the TGI [53] of the same compound?
Answer: > 100 µM

Question: What about the TGI [54] of the same compound?
Answer: 70.7 µM
